Molecular target: Transcription factor p65 (Homo sapiens) (UniProt Q04206)
Test: Inhibition of NF-kappaB DNA binding by EMSA

Chain of Transcription factor p65 (Homo sapiens) (Q04206 whole entry): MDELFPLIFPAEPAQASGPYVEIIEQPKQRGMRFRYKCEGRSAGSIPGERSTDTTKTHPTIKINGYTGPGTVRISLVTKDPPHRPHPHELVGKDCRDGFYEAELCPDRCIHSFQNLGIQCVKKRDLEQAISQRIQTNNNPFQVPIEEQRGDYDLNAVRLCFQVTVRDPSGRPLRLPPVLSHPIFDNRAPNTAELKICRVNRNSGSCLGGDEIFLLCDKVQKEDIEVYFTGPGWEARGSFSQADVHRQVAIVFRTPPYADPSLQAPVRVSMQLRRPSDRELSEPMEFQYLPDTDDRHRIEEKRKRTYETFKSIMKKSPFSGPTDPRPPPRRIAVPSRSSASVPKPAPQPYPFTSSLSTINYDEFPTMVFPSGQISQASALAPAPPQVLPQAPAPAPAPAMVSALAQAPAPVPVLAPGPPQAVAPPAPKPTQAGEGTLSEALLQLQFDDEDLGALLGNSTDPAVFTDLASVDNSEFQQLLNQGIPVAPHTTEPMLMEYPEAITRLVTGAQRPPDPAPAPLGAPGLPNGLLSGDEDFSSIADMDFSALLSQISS

IC100 [µM]	SMILES
50	C=C(C)C(=O)O[C@H]1[C@H]2C(=C)C(=O)O[C@@H]2[C@@H](O)C(=C)CC/C=C(/C=O)[C@@H]1OC
50	C=C(C)C(=O)OC/C1=C\C[C@@H]2C(=C)C(=O)O[C@H]2C/C(CO)=C/CC1
10	C=C(C)C(=O)O[C@H]1C/C(C)=C/C(=O)/C=C(/C)[C@H](O)[C@H]2OC(=O)C(=C)[C@@H]21
200	C=C(C)C(=O)O[C@@H]1C[C@]2(C)CC[C@@](OC)(O2)/C(C)=C\[C@H]2OC(=O)C(=C)[C@@H]21
50	C=C(C)C(=O)O[C@@H]1C[C@](C)(O)[C@@H]2C(=O)C=C(C)[C@@H]2[C@H]2OC(=O)C(=C)[C@@H]21
5	C=C(C)C(=O)O[C@H]1/C(C=O)=C\CC/C(C)=C/[C@H]2OC(=O)C(=C)[C@@H]2[C@@H]1O
50	C=C(C)C(=O)O[C@@H]1C[C@]2(C)CC[C@@](O)(O2)/C(C)=C\[C@H]2OC(=O)C(=C)[C@@H]21
5	C=C1C(=O)O[C@@H]2/C=C(/C)C3=CC(=O)[C@@](C)(C[C@@H](OC(=O)/C(C)=C/C)[C@@H]12)O3
10	C=C(C)C(=O)O[C@@H]1C[C@@]2(C)OC(=CC2=O)/C(C)=C\[C@H]2OC(=O)C(=C)[C@@H]21
10	C=C(C)C(=O)O[C@@H]1CC(C)=C2C(=O)C=C(C)[C@@H]2[C@H]2OC(=O)C(=C)[C@@H]21
10	C=C(C)C(=O)O[C@@H]1/C=C(\C=O)[C@H](OC)CCC(=C)[C@H](O)[C@H]2OC(=O)C(=C)[C@@H]21
50	C=C1C(=O)O[C@H]2/C=C(\C)CC/C=C(\C)[C@@H](OC(=O)[C@@]3(C)O[C@H]3C)[C@H](O)[C@@H]12
200	C=C1C(=O)O[C@@H]2/C=C(\C)CC/C=C(\C)[C@@H](OC(C)=O)C[C@@H]12
5	C=C(C)C(=O)O[C@@H]1/C=C(/C=O)CCCC(=C)[C@H](O)[C@H]2OC(=O)C(=C)[C@@H]21
200	C=C1[C@@H]2[C@H]3OC(=O)C(=C)[C@@H]3CCC(=C)[C@@H]2C[C@@H]1OC(=O)C=C(C)C
20	C=C1C(=O)O[C@@H]2[C@H]3C(C)=CC[C@H]3[C@](C)(O)C[C@H](OC(C)=O)[C@@H]12
10	C=C(C)C(=O)O[C@H]1[C@H]2C(=C)C(=O)O[C@@H]2/C=C(\C)CC/C=C(/C=O)[C@@H]1O

Further lines, the molecule ahead of its results:

SMILES	IC100 [µM]
C=C1C(=O)O[C@@H]2/C=C(/CO)C3=CC(=O)[C@@](C)(C[C@@H](OC(=O)/C(C)=C/C)[C@@H]12)O3	5
C=C1C(=O)O[C@H]2C[C@@H](C)[C@@H]3C=CC(=O)[C@@]3(C)[C@H](O)[C@H]12	20
C=C1C(=O)O[C@H]2C[C@H](C)C3=CC(=O)[C@H](C)C3C[C@H]12 (stereo not given in full)	20
C=C1C(=O)O[C@H]2C/C(CO)=C/CC/C(COC(=O)C(C)CO)=C/C[C@H]12 (stereo not given in full)	100
C=C1[C@@H]2[C@H]3OC(=O)C(=C)[C@@H]3CCC(=C)[C@@H]2C[C@@H]1OC(C)=O	100
C[C@@H]1C[C@H]2OC(=O)[C@@H](C)[C@H]2[C@H](O)[C@]2(C)C(=O)C=C[C@@H]12	200
C=C1C(=O)O[C@@H]2/C=C(\C)CC/C=C(/C)CC[C@@]12O	10
C=C1C(=O)O[C@@H]2C[C@@H](C)[C@@H]3[C@@H](OC(C)=O)C[C@@H](O)[C@@]3(C)[C@@H](O)[C@H]12	200
C/C=C(\C)C(=O)O[C@H]1[C@@H]2[C@H](C)C(=O)O[C@@H]2C[C@@H](C)[C@@H]2C=CC(=O)[C@]21C	100
C=C1C(=O)O[C@@H]2/C=C(/CO)C3=CC(=O)[C@@](C)(C[C@H](OC(=O)/C(C)=C\C)[C@@H]12)O3	5
C=C1[C@H](O)C[C@H](O)[C@]2(C)CC[C@H]3C(=C)C(=O)O[C@@H]3[C@@H]12	100
C=C1C(=O)O[C@H]2C/C(CO)=C/CC/C(COC(=O)C(C)CC)=C/C[C@H]12 (stereo not given in full)	50
C=C1[C@H](O)C[C@@H](O)[C@]2(C)CC[C@H]3C(=C)C(=O)O[C@@H]3[C@@H]12	200
C=C1C(=O)O[C@@H]2C[C@H](C)C3=C(C[C@H]12)[C@@H](C)CC3=O	20
C=C1C(=O)O[C@@H]2[C@H]3C(C)=CC(=O)C3=C(C)CC[C@@H]12	50
C=C1C(=O)O[C@@H]2[C@H]3C(C)=CC(=O)C3=C(C)C[C@@H](OC(=O)[C@]3(C)O[C@@H]3C)[C@@H]12	20
C=C1C(=O)O[C@H]2C/C(CO)=C/CC/C(COC(=O)C(C)C)=C/C[C@H]12	50
C=C1C(=O)O[C@@H]2C[C@@]3(C)[C@H](O)CC=C(COC(=O)C(C)C)[C@@H]3C[C@H]12	50
C=C1C(=O)O[C@@H]2C[C@H](C)C3=CC(=O)[C@H](C)[C@@H]3C[C@H]12	50
C=C1C(=O)O[C@H]2C/C(CO)=C/CC/C(COC(=O)C3(C)CO3)=C/C[C@H]12 (stereo not given in full)	50
C=C1C(=O)O[C@@H]2[C@H]3C(C)=CC[C@H](O)[C@]3(C)CC[C@@H]12	300
C=C1C(=O)O[C@@H]2C3O[C@]3(C)CC/C=C(\C)CC[C@@H]12 (stereo not given in full)	20
C=C1C(=O)O[C@@H]2C[C@@]3(C)[C@H](O)CC[C@@](O)(COC(=O)C(C)C)[C@@H]3C[C@H]12	200
